SMILES strings stand for the structures. pKd: −log10 of the molar value.

Assay [1] deals with T1, TseF (PA2374) (Pseudomonas aeruginosa, UniProt Q9I1A5). Briefly: ITC; also fat western blot. Format: binding. A general note: ITC needs no label: the signal is the heat of the interaction.
In assay [2] the target is T1, TseF (PA2374). Briefly: ITC; also immobilized-PQS pull-down and fat western blot; Kd […] with Fe3+. In kind it is binding.

T1 sequence (Q9I1A5 entry or part of it): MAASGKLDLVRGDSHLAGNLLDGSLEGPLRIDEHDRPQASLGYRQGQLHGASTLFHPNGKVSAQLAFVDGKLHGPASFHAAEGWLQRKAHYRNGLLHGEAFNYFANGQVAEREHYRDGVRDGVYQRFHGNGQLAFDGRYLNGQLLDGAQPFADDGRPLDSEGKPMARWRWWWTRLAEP

`CCCCCCCc1cc(O)c2ccccc2n1` [HHQ, 4-hydroxy-2-heptylquinoline] gave a pKd at TseF (PA2374) [1] of 4.59.

The compound `CCCCCCCc1[nH]c2ccccc2c(=O)c1O` [PQS, 2-heptyl-3-hydroxy-4-quinolone] had a pKd on TseF (PA2374) [2] of 6.48.

For orientation: pKd means −log10 of the Kd, conventionally taken in molar units. Read a high pKd as a low Kd.

The values are drawn from paper PMC5379069, “A Pseudomonas T6SS effector recruits PQS-containing outer membrane vesicles for iron acquisition” (Nature Communications, 2017).
